Reference: US10961309B2, “Reducing systemic regulatory T cell levels or activity for treatment of disease and injury of the CNS” (Yeda Research and Development Co. Ltd, priority 2014, dated 2021)
Entries after “also recorded” stand apart in the source; their conditions may differ.

What was measured:
Aβ plaques = assay: Aβ plaque quantitation (immunohistochemistry); format: in vivo, mouse
Procedure: Tissue processing and immunohistochemistry were performed on paraffin embedded sectioned mouse (6 μm thick) and human (10 μm thick) brains. For human ICAM-1 staining, primary mouse anti-ICAM (1:20 Abcam; ab2213) antibody was used. Slides were incubated for 10 min with 3% H2O2, and a secondary biotin-conjugated anti-mouse antibody was used, followed by biotin/avidin amplification with Vectastain ABC kit (Vector Laboratories). Subsequently, 3,3′-diaminobenzidine (DAB substrate) (Zytomed kit) was applied; slides were dehydrated and mounted with xylene-based mounting solution. For tissue stainings, mice were transcardially perfused with PBS prior to tissue excision and fixation. CP tissues were isolated under a dissecting microscope (Stemi DV4; Zeiss) from the lateral, third, and fourth ventricles of the brain. For whole mount CP staining, tissues were fixated with 2.5% paraformaldehyde (PFA) for 1 hour at 4° C., and subsequently transferred to PBS containing 0.05% sodium azide. Prior to staining, the dissected tissues were washed with PBS and blocked (20% horse serum, 0.3% Triton X-100, and PBS) for 1 h at room temperature. Whole mount staining with primary antibodies (in PBS containing 2% horse serum and 0.3% Triton X-100), or secondary antibodies, was performed for 1 h at room temperature. Each step was followed by three washes in PBS. The tissues were applied to slides, mounted with Immu-mount (9990402, from Thermo Scientific), and sealed with cover-slips. For staining of sectioned brains, two different tissue preparation protocols (paraffin embedded or microtomed free-floating sections) were applied, as previously described (Baruch et al, 2013; Kunis et al, 2013). The following primary antibodies were used: mouse anti-Aβ (1:300, Covance, #SIG-39320); rabbit anti-GFP (1:100, MBL, #598); rat anti-CD68 (1:300, eBioscience, #14-0681); rat anti-ICAM-1 (1:200, Abcam, #AB2213); goat anti-GFP (1:100, Abcam, #ab6658); rabbit anti-IBA-1 (1:300, Wako, #019-19741); goat anti-IL-10 (1:20, R&D systems, #AF519); rat anti-Foxp3 (1:20, eBioscience, #13-5773-80); rabbit anti-CD3 (1:500, Dako, #IS503); mouse anti-ZO-1, mouse anti-E-Cahedrin, and rabbit anti-Claudin-1 (all 1:100, Invitrogen, #33-9100, #33-4000, #51-9000); rabbit anti-GFAP (1:200, Dako, #Z0334). Secondary antibodies included: Cy2/Cy3/Cy5-conjugated donkey anti-mouse/goat/rabbit/rat antibodies (1:200; all from Jackson Immunoresearch). The slides were exposed to Hoechst nuclear staining (1:4000; Invitrogen Probes) for 1 min. Two negative controls were routinely used in immunostaining procedures, staining with isotype control antibody followed by secondary antibody, or staining with secondary antibody alone. For Foxp3 intracellular staining, antigen retrieval from paraffin-embedded slides was performed using Retreivagen Kit (#550524, #550527; BD Pharmingen™). Microscopic analysis, was performed using a fluorescence microscope (E800; Nikon) or laser-scanning confocal microscope (Carl Zeiss, Inc.). The fluorescence microscope was equipped with a digital camera (DXM 1200F; Nikon), and with either a 20× NA 0.50 or 40× NA 0.75 objective lens (Plan Fluor; Nikon). The confocal microscope was equipped with LSM 510 laser scanning capacity (three lasers: Ar 488, HeNe 543, and HeNe 633). Recordings were made on postfixed tissues using acquisition software (NIS-Elements, F3 [Nikon] or LSM [Carl Zeiss, Inc.]). For quantification of staining intensity, total cell and background staining was measured using ImageJ software (NIH), and intensity of specific staining was calculated, as previously described (Burgess et al, 2010). Images were cropped, merged, and optimized using Photoshop CS6 13.0 (Adobe), and were arranged using Illustrator CS5 15.1 (Adobe).
From each brain, 6 μm coronal slices were collected, and eight sections per mouse, from four different pre-determined depths throughout the region of interest (dentate gyrus or cerebral cortex) were immunostained. […]

5XFAD AD-Tg mice = assay: Morris water maze (MWM); format: in vivo, mouse
Procedure: Mice were given three trials per day, for 4 consecutive days, to learn to find a hidden platform located 1.5 cm below the water surface in a pool (1.1 m in diameter). The water temperature was kept between 21-22° C. Water was made opaque with milk powder. Within the testing room, only distal visual shape and object cues were available to the mice to aid in location of the submerged platform. The escape latency, i.e., the time required to find and climb onto the platform, was recorded for up to 60 s. Each mouse was allowed to remain on the platform for 15 s and was then removed from the maze to its home cage. […] The inter-trial interval for each mouse was 10 min. On day 5, the platform was removed, and mice were given a single trial lasting 60 s without available escape. On days 6 and 7, the platform was placed in the quadrant opposite the original training quadrant, and the mouse was retrained for three sessions each day. Data were recorded using the EthoVision V7.1 automated tracking system (Noldus Information Technology). Statistical analysis was performed using analysis of variance (ANOVA) and the Bonferroni post-hoc test. All MWM testing was performed between 10 a.m. and 5 p.m. during the lights-off phase.

For CC1=C(/C=C/C(C)=C/C=C/C(C)=C/C(=O)O)C(C)(C)CCC1 [ATRA, All-trans retinoic acid], the “cerebral Aβ plaque burden” value (Aβ plaques; 3 weeks after last ATRA injection, AD-Tg mice) was 2-3 fold increase.
For Diphtheria toxin [DTx], the “spatial learning and memory (MWM)” value (5XFAD AD-Tg mice; AD-Tg/DTR+ vs DTx-treated AD-Tg/DTR− mice, 3 weeks after last DTx injection) was “better spatial learning/memory performance; also recorded: significant improvement in spatial learning and memory”.
Glatiramer acetate [GA] was tested, and the Aβ plaque load (Aβ plaques; daily-GA 100 μg s.c. for 1 month, 5XFAD AD-Tg mice) was “did not show any beneficial effect, or showed a moderate adverse effect on plaque load”, the “Aβ plaque load (percentage of total area of hippocampal dentate gyrus)” value (Aβ plaques; weekly-GA, 5XFAD AD-Tg mice) was “robust effect; also recorded: reduction in Aβ plaque load” and the “mean Aβ plaque numbers” value (Aβ plaques; weekly-GA, 5XFAD AD-Tg mice) was “reduction”. The “spatial learning/memory performance in acquisition, probe and reversal phases of the MWM” value (5XFAD AD-Tg mice; weekly-GA vs vehicle (PBS), AD-Tg mice, age 6 m) was “better spatial learning/memory performance” and the cognitive performance (5XFAD AD-Tg mice; weekly-GA, 5XFAD AD-Tg mice, MWM 1 week, RAWM 1 and 2 months after last injection) was “improved cognitive performance”.
